From patent publication US10570148B2, “N-alkyl-2-phenoxyethanamines, their preparation and use” (The Trustees of Columbia University In the City of New York, priority 2013, dated 2020)

Columns and labels:
RBP4 [1] = biological target: T1, RBP4 (Homo sapiens, UniProt P02753); experiment: Scintillation proximity RBP4 binding assay (SPA); parameters: Untagged human RBP4 purified from urine of tubular proteinuria patients; purchased Fitzgerald Industries International; host or cells: urine of tubular proteinuria patients; settings: analogs, present-tense paper example
Method: Scintillation Proximity RBP4 Binding Assay
Untagged human RBP4 purified from urine of tubular proteinuria patients was purchased from Fitzgerald Industries International. It was biotinylated using the EZ-Link Sulfo-NHS-LC-Biotinylation kit from Pierce following the manufacturer's recommendations. Binding experiments were performed in 96-well plates (OptiPlate, PerkinElmer) in a final assay volume of 100 μl per well in SPA buffer (1×PBS, pH 7.4, 1 mM EDTA, 0.1% BSA, 0.5% CHAPS). The reaction mix contained 10 nM ^3H-Retinol (48.7 Ci/mmol; PerkinElmer), 0.3 mg/well Streptavidin-PVT beads, 50 nM biotinylated RBP4 and a test compound. Nonspecific binding was determined in the presence of 20 µM of unlabeled retinol. The reaction mix was assembled in the dark under dim red light. The plates were sealed with clear tape (TopSeal-A: 96-well microplate, PerkinElmer), wrapped in the aluminum foil, and allowed to equilibrate 6 hours at room temperature followed by overnight incubation at +4° C. Radiocounts were measured using a TopCount NXT counter (Packard Instrument Company).

RBP4-TTR interaction [2] = biological target: T2, RBP4-TTR interaction (Homo sapiens, UniProt P02753); experiment: TR-FRET (HTRF) assay for retinol-induced RBP4-TTR interaction; format: biochemical; parameters: human RBP4 fragment (amino acids 19-201); host or cells: Gold(DE3)pLysS E. coli strain (Stratagene), pMAL-c4x vector; settings: analogs, present-tense paper example
Source text: TR-FPET Assay for Retinol-induced RBP4-TTR Interaction
Binding of a desired RBP4 antagonist displaces retinol and induces hindrance for RBP4-TTR interaction resulting in the decreased FRET signal (FIG. 7). Bacterially expressed MBP-RBP4 and untagged TTR were used in this assay. For the use in the TR-FRET assay the maltose binding protein (MBP)-tagged human RBP4 fragment (amino acids 19-201) was expressed in the Gold(DE3)pLysS E. coli strain (Stratagene) using the pMAL-c4x vector. Following cell lysis, recombinant RBP4 was purified from the soluble fraction using the ACTA FPLC system (GE Healthcare) equipped with the 5-ml the MBP Trap HP column. Human untagged TTR was purchased from Calbiochem. Untagged TTR was labeled directly with Eu^3+ Cryptate-NHS using the HTRF Cryptate Labeling kit from CisBio following the manufacturer's recommendations. HTRF assay was performed in white low volume 384 well plates (Greiner-Bio) in a final assay volume of 16 μl per well. The reaction buffer contained 10 mM Tris-HCl pH 7.5, 1 mM DTT, 0.05% NP-40, 0.05% Prionex, 6% glycerol, and 400 mM KF. Each reaction contained 60 nM […] and 2 nM TTR-Eu along with 26.7 nM of anti-MBP antibody conjugated with d2 (Cisbio). Titration of test compounds in this assay was conducted in the presence of 1 μM retinol. All reactions were assembled in the dark under dim red light and incubated overnight at +4° C. wrapped in aluminum foil. TR-FRET signal was measured in the SpectraMax M5e Multimode Plate Reader (Molecular Device). Fluorescence was excited at 337 nm and two readings per well were taken: Reading 1 for time-gated energy transfer from Eu(K) to d2 (337 nm excitation, […] emission, counting delay 75 microseconds, counting window 100 microseconds) and Reading 2 for Eu(K) time-gated fluorescence (337 nm excitation, 620 rum emission, counting delay 400 microseconds, counting window 400 microseconds). The TR-FRET signal was expressed as the ratio of fluorescence intensity: Flu665/Flu620×10,000.

Abca4−/− mice = settings: cited from earlier work
[3] = tested on: retinal pigment epithelium cells; settings: many cell types, including the retinal pigment epithelium cells; cited from earlier work
mice = settings: cited from earlier work
[4] = in vivo; cited from earlier work
RBP4 [5] = biological target: T1, RBP4; settings: cited from earlier work
RBP4-TTR interaction [6] = biological target: T2, RBP4-TTR interaction; settings: cited from earlier work

SMILES: CN(CCOc1ccccc1C(C)(C)C)C(=O)c1c[nH]nn1 [Compound 12, N-(2-(2-(Tert-butyl)phenoxy)ethyl)-N-methyl-1H-1,2,3-triazole-5-carboxamide]
- melting point: 148 to 151 °C

SMILES: CN(CCOc1ccccc1C(C)(C)C)C(=O)C(=O)O [Compound 13, 2-((2-(2-(Tert-butyl)phenoxy)ethyl)(methyl)amino)-2-oxoacetic Acid]
- melting point: 98 to 101 °C

SMILES: CC(C)c1ccccc1OCCN(C)C(=O)Nc1ccccc1C(=O)O [Compound 17, 2-(3-(2-(2-Isopropylphenoxy)ethyl)-3-methylureido)benzoic Acid]
- melting point: 146 to 149 °C

SMILES: CN(CCOc1ccccc1C(C)(C)C)C(=O)Nc1ccncc1C(=O)O [Compound 18, 4-(3-(2-(2-(tert-butyl)phenoxy)ethyl)-3-methylureido)nicotinic Acid]
- melting point: 218 to 220 °C

SMILES: CN(CCOc1ccc(Cl)cc1C(C)(C)C)C(=O)c1cn2ncccc2n1 [Compound 21, N-(2-(2-(tert-butyl)-4-chlorophenoxy)ethyl)-N-methylimidazo[1,2-b]pyridazine-2-carboxamide]
- melting point: 73 to 78 °C

SMILES: CN(CCOc1ccccc1C(C)(C)C)C(=O)c1n[nH]c2ccc(F)cc12 [Compound 22, N-(2-(2-(tert-butyl)phenoxy)ethyl)-5-fluoro-N-methyl-1H-indazole-3-carboxamide]
- melting point: 186 to 190 °C

SMILES: CN(CCOc1ccccc1C(C)(C)C)C(=O)c1cn2ncccc2n1 [Compound 23, N-(2-(2-(Tert-butyl)phenoxy)ethyl)-N-methylimidazo[1,2-b]pyridazine-2-carboxamide]
- melting point: 75 to 80 °C

SMILES: CN(CCOc1ccccc1C(C)(C)C)C(=O)c1n[nH]c2ncccc12 [Compound 24, N-(2-(2-(Tert-butyl)phenoxy)ethyl)-N-methyl-1H-pyrazolo[3,4-b]pyridine-3-carboxamide]
- melting point: 157 to 159 °C

SMILES: CN(CCOc1ccccc1C(C)(C)C)C(=O)c1nnc2n1CCOC2 [Compound 25, N-(2-(2-(Tert-butyl)phenoxy)ethyl)-N-methyl-6,8-dihydro-5H-[1,2,4]triazolo[3,4-c][1,4]oxazine-3-carboxamide]
- melting point: 116 to 120 °C

SMILES: CN(CCOc1ccccc1C(C)(C)C)C(=O)c1n[nH]c2c1CN(S(C)(=O)=O)C2 [Compound 28, N-(2-(2-(Tert-butyl)phenoxy)ethyl)-N-methyl-5-(methylsulfonyl)-1,4,5,6-tetrahydropyrrolo[3,4-c]pyrazole-3-carboxamide]
- melting point: 125 to 133 °C

SMILES: CN(CCOc1ccccc1C(C)(C)C)C(=O)c1n[nH]c2c1CN(S(C)(=O)=O)CC2 [Compound 30, N-(2-(2-(tert-butyl)phenoxy)ethyl)-N-methyl-5-(methylsulfonyl)-4,5,6,7-tetrahydro-1H-pyrazolo[4,3-c]pyridine-3-carboxamide]
- melting point: 226 to 230 °C

SMILES: CN(CCOc1ccccc1C(C)(C)C)C(=O)c1n[nH]c2c1CCN(S(C)(=O)=O)C2 [Compound 33, N-(2-(2-(Tert-butyl)phenoxy)ethyl)-N-methyl-6-(methylsulfonyl)-4,5,6,7-tetrahydro-1H-pyrazolo[3,4-c]pyridine-3-carboxamide]
- melting point: 233 to 237 °C

SMILES: CN1CCc2c(C(=O)N(C)CCOc3ccccc3C(C)(C)C)n[nH]c2C1 [Compound 34, N-(2-(2-(Tert-butyl)phenoxy)ethyl)-N,6-dimethyl-4,5,6,7-tetrahydro-1H-pyrazolo[3,4-c]pyridine-3-carboxamide]
- melting point: 159 to 161 °C

SMILES: COC(=O)c1cc(C)nc(N(C)CCOc2ccccc2C(C)(C)C)n1 [Compound 36, methyl 2-((2-(2-(tert-butyl)phenoxy)ethyl)(methyl)amino)-6-methylpyrimidine-4-carboxylate]
- RBP4 binding (SPA) (RBP4 [1]): bind to RBP4
- antagonism of retinol-dependent RBP4-TTR interaction (HTRF) (RBP4-TTR interaction [2]): antagonize retinol-dependent RBP4-TTR interaction

SMILES: Cc1cc(C(=O)O)nc(N(C)CCOc2ccccc2C(C)(C)C)n1 [Compound 37, 2-((2-(2-(tert-butyl)phenoxy)ethyl)(methyl)amino)-6-methylpyrimidine-4-carboxylic acid]
- RBP4 binding (SPA) (RBP4 [1]): bind to RBP4
- antagonism of retinol-dependent RBP4-TTR interaction (HTRF) (RBP4-TTR interaction [2]): antagonize retinol-dependent RBP4-TTR interaction

SMILES: COC(=O)c1cc(C)nc(N(C)CCOc2cc(C(F)(F)F)cc(C(F)(F)F)c2)n1 [Compound 38, methyl 2-((2-(3,5-bis(trifluoromethyl)phenoxy)ethyl)(methyl)amino)-6-methylpyrimidine-4-carboxylate]
- RBP4 binding (SPA) (RBP4 [1]): bind to RBP4
- antagonism of retinol-dependent RBP4-TTR interaction (HTRF) (RBP4-TTR interaction [2]): antagonize retinol-dependent RBP4-TTR interaction

SMILES: Cc1cc(C(=O)O)nc(N(C)CCOc2cc(C(F)(F)F)cc(C(F)(F)F)c2)n1 [Compound 39, 2-((2-(3,5-bis(trifluoromethyl)phenoxy)ethyl)(methyl)amino)-6-methylpyrimidine-4-carboxylic acid]
- RBP4 binding (SPA) (RBP4 [1]): bind to RBP4
- antagonism of retinol-dependent RBP4-TTR interaction (HTRF) (RBP4-TTR interaction [2]): antagonize retinol-dependent RBP4-TTR interaction

SMILES: CC1=C(/C=C/C(C)=C/C=C/C(C)=C/C(=O)Nc2ccc(O)cc2)C(C)(C)CCC1 [fenretinide, N-(4-hydroxy-phenyl)retinamide]
- A2E production (Abca4−/− mice; Abca4−/− mice, animal model of excessive bisretinoid accumulation): reduced A2E production
- ocular all-trans retinol uptake (Abca4−/− mice; mouse, in vivo): inhibit ocular all-trans retinol uptake
- visual cycle (Abca4−/− mice; mouse, in vivo): slow down the visual cycle
- induction of apoptosis [3]: extremely active inducer of apoptosis
- formation of hemangiosarcomas (mice): stimulate formation of hemangiosarcomas
- serum RBP4 and retinol [4]: reduce serum RBP4 and retinol
- binding to RBP4 (RBP4 [5]): bind to RBP4
- displacement of all-trans retinol from RBP4 (RBP4 [5]): displace all-trans retinol from RBP4
- disruption of the RBP4-TTR interaction (RBP4-TTR interaction [6]): disrupt the RBP4-TTR interaction
